According to patent publication US20230321246A1, “HIGH-STRENGTH ORAL TAXANE COMPOSITIONS AND METHODS” (ATHENEX HK INNOVATIVE LIMITED, priority 2017, published 2023):

Legend:
in vivo [1] = details: male, beagle, dog, iv, 2 mg/kg
in vivo [2] = details: male, beagle, dog, iv, 2 mg/kg; remark: listed apart in the source

- AUC(0-inf) (in vivo [1]): 1950 ng·h/mL
- AUC(0-t) (in vivo [1]): 1840 ng·h/mL
- Cmax (in vivo [1]): 1690 ng/mL
- MRT (in vivo [1]): 3.67 h
- Tmax (in vivo [1]): 1 h
- Vd (in vivo [1]): 6.59 L/kg
- clearance (in vivo [1]): 19.3 mL/min/kg
- AUC(0-inf) (in vivo [2]): 768 ng·h/mL
- AUC(0-t) (in vivo [2]): 701 ng·h/mL
- Cmax (in vivo [2]): 811 ng/mL
- MRT last (in vivo [2]): 5.26 h
- Tmax (in vivo [2]): 0 h
- Vd (in vivo [2]): 2.1 L/kg
- clearance (in vivo [2]): 44.3 mL/min/kg
- half-life (in vivo [2]): 7.57 h
Structure (SMILES): CC(=O)O[C@H]1C(=O)[C@@]2(C)[C@H]([C@H](OC(=O)c3ccccc3)[C@]3(O)C[C@H](OC(=O)[C@H](O)[C@@H](NC(=O)c4ccccc4)c4ccccc4)C(C)=C1C3(C)C)[C@]1(OC(C)=O)CO[C@@H]1C[C@@H]2O [Paclitaxel, paclitaxel]
